Results from patent US20060051787A1, “Quantitative PCR for analysis of DNA damage induced by PGHS-2 (COX-2) or other factors” (priority 2004, published 2006).
Several values for one entry are separate records, joined by “and”; a condition that tells them apart may be missing. Equal entries are not always repeated. Where two headings read alike, the source gives them in different places.

What was measured:
8.8 kb mitochondrial DNA = assay: QPCR (14 cycles) followed by real-time PCR DNA damage analysis in XPA cells; assay type: cell-based, human
Excerpt: QPCR products of 2.3 kb and 8.8 kb mitochondrial DNA were quantitated by real-time PCR with primers to produce a 112 bp fragment using the ABI PRISM® 7700 (Applied Biosystems). DNA replication was monitored by addition of a double-stranded DNA binding dye, SYBR® Green I (Applied Biosystems).
Real-time PCR primers selected from the […].
Concentrations of 8.8 kb PCR products were obtained after treatment of PGHS-2-expressing DNA damage repair deficient cells with t-BOOH (PGHS-2 substrate) and BPD (a premutagen) using a standard curve. The standard curve was obtained by real-time PCR with various concentrations of the 8.8 kb DNA.
QPCR of a 16.2 kb, 8.8 kb and 2.3 kb mitochondrial DNA and 2.3 kb p53 and 0.5 kb β-globin nuclear DNA were carried out using biotinylated nucleotide primers. The reaction mixture contained 15 ng of template DNA, 1.2 mM MgSO4, 0.2 mM deoxynucleotide triphosphates, 0.2 μM biotinylated primers, and 1 unit of Platinum Pfx DNA polymerase (Life Technologies). Alternatively, the QPCR was carried out with the GeneAmp XL PCR kit (PerkinElmer/Roche) which contains rTth DNA polymerase XL and XL PCR buffer as previously described (9).
The PCR was initiated with a 90° C. hot-start addition of the polymerase. Initial denaturation was carried out for 1 min at 94° C. followed by cycles of denaturation at 94° C. for 15 sec, primer extension and annealing at 66° C. for 12 min and final extension at 72° C. for 10 minutes. The DNA product was separated by electrophoresis on 1% agarose gel and visualized by ethidium bromide staining.
Best fitting real-time PCR primers were selected using Primer Express program (Applied Biosystems). The PCR primers selected for a real-time PCR were used to replicate 112 bp of PCR for both 8.8 kb and 2.3 kb mitochondrial DNA. The primer binding sites are located in the middle 2.1 kb section (the missing part in 6.7 kb internal control) of 8.8 kb fragment. […] The real-time PCR primers for 112 bp product (Tm, 79° C.) are […] […]
Standard curve for real-time PCR analysis was obtained with the 8.8 kb standards ranging from 0.012 to 1200 pg. Concentrations of the 8.8 kb DNA preparation were spectrophotometrically measured. […] Using the standard curve to obtain relationship of log concentrations of various standards and Ct, QPCR product levels of the samples were calculated.
Real-time PCR analysis was carried out and specificity of the real-time PCR of the 8.8 kb fragment was analyzed by (a) agarose gel electrophoresis of 40 cycle replicated 112 bp real-time PCR product and (b) melting curve of the 112 bp product. […]
Single 112 bp real-time PCR product was detected in each sample and a sharp melting curve at 79° C., which agreeded with the theoretical Tm, was obtained. […]

[1] = test system: XPA Cells #32 (PGHS-/neo+); assay: Cytotoxicity: colony-forming ability of negative control XPA cells; assay type: cell-based, human; details: treated two hours, incubated 10 days
Procedure: (§1) XPA cells #12 (PGHS^+/neo^+) and #32 (PGHS^−/neo^+) were selected for cytotoxicity and mutagenicity assays. Cytotoxicity assays were carried out by assaying the loss of colony-forming ability as previously described (1).
(§2) Cells were treated as follows: (a) no treatment, (b) 100 μM arachidonic acid (AA), (c) 200 μM AA, (d) 5 μM benzo(a)pyrene-7,8-dihydrodiol (BPD), (e) 5 μM BPD+100 μM AA, (f) 5 μM BPD+200 μM AA, (g) 100 μM butylated hydroxyanisole (BHA), (h) 100 μM BHA+5 μM BPD+100 AA and (i) 100 μM BHA+5 μM BPD+200 μM AA. BPD was dissolved in tetrahydrofuran.
(§3) Cytotoxicity of environmental toxicants to PGHS-2^+/neo^+ (PGHS-2-dependent) XPA and wild type cells were assayed by measuring colony-forming ability. Mutagenicity of the chemical was assayed by measuring induction of 6-thioguanine resistance of the cells, which was a result of mutation of the cells to the HPRT-phenotype.
(§4) Cytotoxicity assays were carried out by assaying the loss of colony-forming ability. Briefly, after harvesting, cells were plated at a cloning density of 600 cells/well in six-well plates and incubated for 7-12 days. The colonies were washed with PBS, fixed with methanol, stained with 0.04% methylene blue, and counted.

[2] = test system: XPA human skin fibroblast cell line which expressed cytochrome P450 1A1; details: by an endogenously formed metabolite of BPD; cited from earlier work
[3] = test system: XPA Cells #12 (PGHS+/neo+); assay: Cytotoxicity: colony-forming ability of PGHS-2 expressing XPA cells; assay type: cell-based, human; details: for Colony Number (% of Control): treated two hours, incubated 10 days
Procedure: as §1, §2, §3, §4

[4] = test system: 17.7 kb fragment of the nuclear beta-globin gene; details: cited from earlier work
[5] = test system: 16.2 kb mitochondrial fragment; details: cited from earlier work
[6] = test system: 16.2 kb mitochondrial DNA; assay: QPCR DNA damage analysis in XPA cells #12; assay type: cell-based, human; details: 0.5 mM t-BOOH; 3 hours; 26 cycles; FIG. 5
Procedure: Panel A, ethidium bromide staining of biotinylated mitochondrial DNA fragments (16.2 kb), Panel B, visualization of the biotinylated mitochondrial DNA fragments by chemiluminescent assay (ECL) system, Panel C, a negative control, ethidium bromide staining of biotinylated β-globin (0.55 kb) DNA fragments and Panel D, visualization of the biotinylated β-globin DNA fragments by an ECL system.
Lane 1, bp standards, lanes 2 and 3, cells treated with 1 mM t-BOOH+solvent for BPD (tetrahydrofuran), lanes 4 and 5, cells treated with 1 mM t-BOOH+5 μM BPD, lanes 6 and 7, cells treated with solvent for AA (ethanol), lanes 8 and 9, cells treated with 100 μM AA and lanes 10 and 11, cells treated with 100 μM AA+5 μM BPD. Cells were treated for 3 hours at 37° C., DNA was isolated and QPCRs were carried out using biotinylated nucleotide primers. […]
DNA damage repair deficient XPA cells #12 (PGHS-2+) were grown and cells were treated for three hours at 37° C. with 0.5 mM or 1 mM t-BOOH with or without 5 μM to 15 μM BPD. […] DNA fragments were transferred to a nitrocellulose membrane and visualized by a streptavidin-horseradish peroxidase/chemiluminescent (ECL) system followed by quantitation with a densitometer. Visualization of the DNA fragments by the ECL system amplified intensity of each DNA band and made it possible to quantitate each DNA band using a densitometer. […]

[7] = 200 μM for 15 minutes, in 1.5 hours
[8] = 200 μM for 60 minutes, in 3.5 hours

O[C@H]1C=Cc2c(cc3ccc4cccc5ccc2c3c45)[C@@H]1O (relative stereo) [BPD, benzo(a)pyrene-trans-7,8-dihydrodiol]
% mean value of control, 112.47 pg (8.8 kb mitochondrial DNA; 5 mM BPD, samples 1 and 2): 93.1 ± 2.7% and 111.9 ± 2.3% | pg DNA after 14 cycles of first PCR (8.8 kb mitochondrial DNA; 5 mM BPD, samples 1 and 2 = separate cell culture experiments): 104.71 ± 3.02 pg and 125.89 ± 2.59 pg | Colony Number (% of Control) ([1]; 5 μM BPD): 88.0 ± 3.3 % of Control | mutation frequencies versus wild type cell line [2]: approximately three-fold higher mutation frequencies | Colony Number (% of Control) ([3]; 5 μM BPD): 214.3 ± 7.1 % of Control | colony number (text summary of Table 1) ([3]; treatment for two hours): dramatically increased colony number

CCCCC/C=C\C/C=C\C/C=C\C/C=C\CCCC(=O)O [AA, arachidonic acid]
Colony Number (% of Control) ([1]; 100 μM AA): 70.1 ± 0.6 % of Control | Colony Number (% of Control) ([1]; 200 μM AA): 72.0 ± 6.2 % of Control | colony number (text summary of Table 1) [3]: dramatically increased colony number | Colony Number (% of Control) ([3]; 100 μM AA): 133.3 ± 12.6 % of Control | Colony Number (% of Control) ([3]; 200 μM AA): 140.5 ± 8.3 % of Control

COc1ccc(O)c(C(C)(C)C)c1 [BHA, butylated hydroxyanisole]
Colony Number (% of Control) ([1]; 100 μM BHA): 96.0 ± 3.8 % of Control | Colony Number (% of Control) ([3]; 100 μM BHA): 211.9 ± 4.8 % of Control | colony number (text summary of Table 1) ([3]; treatment for two hours): dramatically increased colony number

OO [hydrogen peroxide]
repair of DNA damage [4, 7]: completely repaired | repair of DNA damage [4, 8]: complete DNA repair | repair of DNA damage [5, 7]: completely repaired | repair of DNA damage [5, 8]: no repair | level of PCR products of the mitochondrial fragment relative to that of the nuclear beta-globin gene ([5]; 200 and 400 μM for an hour): 20%-30%

CC(C)(C)OO [t-BOOH, tert-butyl hydroperoxide]
% mean value of control, 112.47 pg (8.8 kb mitochondrial DNA; 0.5 mM t-BOOH, samples 1 and 2): 70.6 ± 2.0% and 46.7 ± 1.9% | pg DNA after 14 cycles of first PCR (8.8 kb mitochondrial DNA; 0.5 mM t-BOOH, samples 1 and 2): 79.40 ± 2.24 pg and 52.48 ± 2.19 pg | 16.2 kb PCR product level [6]: −50 % of control
